Results reported in ChEMBL document CHEMBL1201862, “PubChem BioAssay data set” (2004).
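Tested at 5 concentrations; 48 h exposure; 96-well plates; endpoints linearly interpolated, else capped at highest concentration. The concentration for 50% growth inhibition is given as GI50.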 The source made the active and inactive calls. Rule as the data show it: active = GI50 up to about 1.1 µM and inactive = higher.

Legend:
Experiment in all cases: NCI tumour cell line growth inhibition, 48 h
A549 = tested on: A549
HOP-62 = tested on: HOP-62
UACC-257 = tested on: UACC-257
OVCAR-5 = tested on: OVCAR-5
RPMI-8226 = tested on: RPMI-8226
U-251 = tested on: U-251
HT-29 = tested on: HT-29
SK-MEL-2 = tested on: SK-MEL-2
SK-OV-3 = tested on: SK-OV-3
RXF 393 = tested on: RXF 393
KM12 = tested on: KM12
OVCAR-4 = tested on: OVCAR-4
OVCAR-3 = tested on: OVCAR-3
NCI-H522 = tested on: NCI-H522
SNB-19 = tested on: SNB-19
SW-620 = tested on: SW-620
SF-268 = tested on: SF-268
LOX IMVI = tested on: LOX IMVI
MDA-N = tested on: MDA-N
OVCAR-8 = tested on: OVCAR-8

Measured: GI50

CCN(CC)S(=O)(=O)c1ccc2[nH]c(NC(=O)OC)nc2c1
inactive: A549 94.6 µM | HOP-62 40.3 µM | UACC-257 8.02 µM | OVCAR-5 > 100 µM | RPMI-8226 14 µM | U-251 > 100 µM | HT-29 40.9 µM | SK-MEL-2 > 100 µM | SK-OV-3 > 100 µM | RXF 393 81.3 µM | KM12 36.9 µM | OVCAR-4 35.6 µM | OVCAR-3 80.9 µM | NCI-H522 > 100 µM | SNB-19 70.5 µM | SW-620 33.7 µM | SF-268 99.3 µM | LOX IMVI 42.6 µM | MDA-N 18.5 µM | OVCAR-8 45.1 µM

CCCCCC(/C=C/[C@@H]1[C@@H](C(O)CCCCCC(=O)OC)C(=O)C[C@H]1O[Si](C)(C)C(C)(C)C)OCOCCOC (stereo not given in full)
inactive: A549 24.6 µM | HOP-62 16.9 µM | UACC-257 7.85 µM | OVCAR-5 21.1 µM | RPMI-8226 2.71 µM | U-251 7.26 µM | HT-29 6.7 µM | SK-MEL-2 17 µM | SK-OV-3 18.8 µM | RXF 393 18.6 µM | KM12 6.62 µM | OVCAR-4 18.5 µM | OVCAR-3 14.9 µM | NCI-H522 3.92 µM | SNB-19 15.3 µM | SW-620 5.12 µM | SF-268 14 µM | LOX IMVI 3.54 µM | MDA-N 8.51 µM | OVCAR-8 16.5 µM

C=CC[C@H]1[C@H](O[Si](C)(C)C(C)(C)C)C=CC(=O)[C@@H]1CC(=O)N(Cc1ccccc1)Cc1ccccc1
inactive: A549 20.5 µM | HOP-62 25.6 µM | UACC-257 11.5 µM | OVCAR-5 32.4 µM | RPMI-8226 9.89 µM | U-251 19.3 µM | HT-29 6.35 µM | SK-MEL-2 14.8 µM | SK-OV-3 26.1 µM | RXF 393 6.15 µM | KM12 15.9 µM | OVCAR-4 17.5 µM | OVCAR-3 15.1 µM | NCI-H522 5.01 µM | SNB-19 29.6 µM | SW-620 26.7 µM | SF-268 6.55 µM | LOX IMVI 12.5 µM | MDA-N 16.4 µM | OVCAR-8 16.1 µM
